Like-named read-outs stand apart in the source and are kept apart here.
Tested on: erythrocytes infected with 3D7 trophozoites
Type: cell-based, Plasmodium falciparum
Conditions: for Folate level, Log2 (treated vs control) / Geranylgeranyl pyrophosphate level, Log2 (treated vs control): sheet Log2; for Folate level, Log2 (treated vs control): medMz 440.132; for Geranylgeranyl pyrophosphate level, Log2 (treated vs control): medMz 449.186; for Ratio, Farnesyl diphosphate: metabolite Farnesyl diphosphate (medMz 381.123); for Ratio, Folate: metabolite Folate (medMz 440.132); for Ratio, Geranylgeranyl pyrophosphate: metabolite Geranylgeranyl pyrophosphate (medMz 449.186)

## COc1ccc2c(c1)OC(O)(C(F)(F)C(F)(F)F)CC2=O (stereo not shown) [MMV007839]
Av 6hr, 6 μM
  NADH log2 ratio (+MMV007839/-MMV007839): -2.783
  NADP+ log2 ratio (+MMV007839/-MMV007839): -0.3285
  Octoluse Bisphosphate log2 ratio (+MMV007839/-MMV007839): 0.9087
  Ornithine log2 ratio (+MMV007839/-MMV007839): -0.4177
  Orotate log2 ratio (+MMV007839/-MMV007839): -1.6355
  Orotidine 5-phosphate log2 ratio (+MMV007839/-MMV007839): -1.249
  Orotidine log2 ratio (+MMV007839/-MMV007839): -0.6749
  PAEF log2 ratio (+MMV007839/-MMV007839): 0.8061
  PAVH log2 ratio (+MMV007839/-MMV007839): -0.07734
  PD log2 ratio (+MMV007839/-MMV007839): 1.197
  PDAV log2 ratio (+MMV007839/-MMV007839): 1.2
  PE log2 ratio (+MMV007839/-MMV007839): 1.699
  PEE log2 ratio (+MMV007839/-MMV007839): 1.042
  PHF log2 ratio (+MMV007839/-MMV007839): 0.9826
  PPVQ log2 ratio (+MMV007839/-MMV007839): -0.2514
  PVNF log2 ratio (+MMV007839/-MMV007839): 0.6194
  PVQ log2 ratio (+MMV007839/-MMV007839): 1.502
  PVQA log2 ratio (+MMV007839/-MMV007839): -0.1116
  Pantothenate log2 ratio (+MMV007839/-MMV007839): -0.4384
  Phenylalanine log2 ratio (+MMV007839/-MMV007839): 0.1437
  Phosphoenolpyruvate log2 ratio (+MMV007839/-MMV007839): 0.09862
  Pipecolate log2 ratio (+MMV007839/-MMV007839): 1.035
  Proline log2 ratio (+MMV007839/-MMV007839): 0.2232
  Pyridoxine log2 ratio (+MMV007839/-MMV007839): 0.219
  Pyruvate log2 ratio (+MMV007839/-MMV007839): 2.1785
  Ribose-5-phosphate log2 ratio (+MMV007839/-MMV007839): 0.5462
  S-Adenosyl-L-homocysteine log2 ratio (+MMV007839/-MMV007839): -0.1116
  SDGLA log2 ratio (+MMV007839/-MMV007839): -0.7918
  SFGD log2 ratio (+MMV007839/-MMV007839): -0.1482
  Sedoheptoluse bisphosphate log2 ratio (+MMV007839/-MMV007839): -0.5568
  Sedoheptulose-1/7-phosphate log2 ratio (+MMV007839/-MMV007839): 0.1885
  Serine log2 ratio (+MMV007839/-MMV007839): 0.02139
  Succinate log2 ratio (+MMV007839/-MMV007839): 0.1816
  Succinate semialdehyde log2 ratio (+MMV007839/-MMV007839): -0.438
  TNVK log2 ratio (+MMV007839/-MMV007839): -0.1213
  Threonine log2 ratio (+MMV007839/-MMV007839): 0.6908
  Tryptophan log2 ratio (+MMV007839/-MMV007839): -0.04867
  Tyrosine log2 ratio (+MMV007839/-MMV007839): 0.1841
  UDP log2 ratio (+MMV007839/-MMV007839): -0.5016
  UDP-N-acetyl-D-glucosamine log2 ratio (+MMV007839/-MMV007839): -0.184
  UDP-glucose log2 ratio (+MMV007839/-MMV007839): 0.0071
  UMP log2 ratio (+MMV007839/-MMV007839): -0.08541
  Uracil log2 ratio (+MMV007839/-MMV007839): -0.6376
  Uric Acid log2 ratio (+MMV007839/-MMV007839): -0.1851
  VD log2 ratio (+MMV007839/-MMV007839): 1.833
  Valine log2 ratio (+MMV007839/-MMV007839): 0.1675
  Xanthine log2 ratio (+MMV007839/-MMV007839): -0.5471
  dADP log2 ratio (+MMV007839/-MMV007839): -0.4329
  dATP log2 ratio (+MMV007839/-MMV007839): 0.01926
  dCDP log2 ratio (+MMV007839/-MMV007839): 0.5589
  dGMP log2 ratio (+MMV007839/-MMV007839): -0.355
  dTMP log2 ratio (+MMV007839/-MMV007839): 0.4667
  dTTP log2 ratio (+MMV007839/-MMV007839): 0.06317
  dUMP log2 ratio (+MMV007839/-MMV007839): 1.053
  myo-Inositol log2 ratio (+MMV007839/-MMV007839): -0.254
  sn-Glycerol 3-phosphate log2 ratio (+MMV007839/-MMV007839): 1.275
  sn-glycero-3-Phospho-1-inositol log2 ratio (+MMV007839/-MMV007839): 0.1242
Av 6hr, 6 μM, medRt 15.0954
  Hexose-phosphate log2 ratio (+MMV007839/-MMV007839): -0.2639
Av 6hr, 6 μM, medRt 16.8944
  6-Phospho-D-gluconate log2 ratio (+MMV007839/-MMV007839): -0.736
Av 6hr, 6 μM, medRt 17.0788
  Hexose-phosphate log2 ratio (+MMV007839/-MMV007839): -1.183
Av 6hr, 6 μM, medRt 17.4636
  6-Phospho-D-gluconate log2 ratio (+MMV007839/-MMV007839): -0.3794
Exp1, 1hr
  Folate level, Log2 (treated vs control): -0.2263
  Geranylgeranyl pyrophosphate level, Log2 (treated vs control): -0.6569
Exp1, 3hr
  Folate level, Log2 (treated vs control): -0.3477
  Geranylgeranyl pyrophosphate level, Log2 (treated vs control): -0.8295
Exp1, 6hr
  Folate level, Log2 (treated vs control): -0.6125
  Geranylgeranyl pyrophosphate level, Log2 (treated vs control): -0.9068
Exp2, 1hr
  Folate level, Log2 (treated vs control): -0.1779
  Geranylgeranyl pyrophosphate level, Log2 (treated vs control): -0.5207
Exp2, 3hr
  Folate level, Log2 (treated vs control): -0.4245
  Geranylgeranyl pyrophosphate level, Log2 (treated vs control): -0.4872
Exp2, 6hr
  Folate level, Log2 (treated vs control): -0.3923
  Geranylgeranyl pyrophosphate level, Log2 (treated vs control): -0.5435
Exp3, 1hr
  Folate level, Log2 (treated vs control): -0.2907
  Geranylgeranyl pyrophosphate level, Log2 (treated vs control): -0.5583
Exp3, 3hr
  Folate level, Log2 (treated vs control): -0.3083
  Geranylgeranyl pyrophosphate level, Log2 (treated vs control): -0.7313
Exp3, 6hr
  Folate level, Log2 (treated vs control): -0.4777
  Geranylgeranyl pyrophosphate level, Log2 (treated vs control): -0.686
Exp1_1hr
  Ratio, Farnesyl diphosphate: 1.012
  Ratio, Folate: 0.8548
  Ratio, Geranylgeranyl pyrophosphate: 0.6342
Exp1_3hr
  Ratio, Farnesyl diphosphate: 0.9128
  Ratio, Folate: 0.7858
  Ratio, Geranylgeranyl pyrophosphate: 0.5627
Exp1_6hr
  Ratio, Farnesyl diphosphate: 0.7497
  Ratio, Folate: 0.6541
  Ratio, Geranylgeranyl pyrophosphate: 0.5334
Exp2_1hr
  Ratio, Farnesyl diphosphate: 1.018
  Ratio, Folate: 0.884
  Ratio, Geranylgeranyl pyrophosphate: 0.697
Exp2_3hr
  Ratio, Farnesyl diphosphate: 1.006
  Ratio, Folate: 0.7451
  Ratio, Geranylgeranyl pyrophosphate: 0.7134
Exp2_6hr
  Ratio, Farnesyl diphosphate: 0.9903
  Ratio, Folate: 0.7619
  Ratio, Geranylgeranyl pyrophosphate: 0.6861
Exp3_1hr
  Ratio, Farnesyl diphosphate: 0.9698
  Ratio, Folate: 0.8175
  Ratio, Geranylgeranyl pyrophosphate: 0.6791
Exp3_3hr
  Ratio, Farnesyl diphosphate: 1
  Ratio, Folate: 0.8076
  Ratio, Geranylgeranyl pyrophosphate: 0.6023
Exp3_6hr
  Ratio, Farnesyl diphosphate: 0.7551
  Ratio, Folate: 0.7181
  Ratio, Geranylgeranyl pyrophosphate: 0.6216

— article PMC5298231, “The Malaria Parasite's Lactate Transporter PfFNT Is the Target of Antiplasmodial Compounds Identified in Whole Cell Phenotypic Screens” (PLoS Pathogens, 2017)
